A word on the IC50: it is the concentration needed to halve the response being measured. Read a high IC50 as a need for much substance.

Bounds are passed on as bounds.

Data on 42 molecules can be found in patent US10683294B2, “5-5 fused rings as C5a inhibitors” (CHEMOCENTRYX, INC., priority 2017, dated 2020).

C5aR, sequence (P21730 whole entry): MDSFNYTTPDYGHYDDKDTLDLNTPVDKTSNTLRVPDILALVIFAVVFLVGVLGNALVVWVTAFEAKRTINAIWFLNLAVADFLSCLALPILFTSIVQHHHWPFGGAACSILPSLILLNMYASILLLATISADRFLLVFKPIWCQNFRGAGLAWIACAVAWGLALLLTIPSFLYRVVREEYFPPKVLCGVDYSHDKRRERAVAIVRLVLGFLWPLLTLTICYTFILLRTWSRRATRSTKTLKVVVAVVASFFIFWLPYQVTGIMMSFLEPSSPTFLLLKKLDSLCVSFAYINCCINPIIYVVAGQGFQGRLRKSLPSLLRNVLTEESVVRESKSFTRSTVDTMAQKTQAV

This test addresses C5aR (Homo sapiens (Human), UniProt P21730). Nature of the test: Chemotaxis assay (inhibition of C5aR mediated migration towards C5a). The class given is cell-based. Particulars: inhibition in the chemotaxis assay (Example 14 B.3); U937 or neutrophil cells, 0.03 nM C5a. The method, then:
U937 cells are a monocytic cell line which express C5aR, and are available from ATCC (VA). These cells were cultured as a suspension in RPMI-1640 medium supplemented with 2 mM L-glutamine, 1.5 g/L sodium bicarbonate, 4.5 g/L glucose, 10 mM HEPES, 1 mM sodium pyruvate, and 10% FBS. Cells were grown under 5% CO2/95% air, 100% humidity at 37° C. and subcultured twice weekly at 1:6 (cells were cultured at a density range of 1×10^5 to 2×10^6 cells/mL) and harvested at 1×10^6 cells/mL. Prior to assay, cells are treated overnight with 0.5 mM of cyclic AMP (Sigma, Ohio) and washed once prior to use. cAMP treated U937 cells can be used in C5aR ligand binding and functional assays.
Optionally, human or murine neutrophils can be used to assay for compound activity. Neutrophils may be isolated from fresh human blood using density separation and centrifigation. Briefly, whole blood is incubated with equal parts 3% dextran and allowed to separate for 45 minutes. After separation, the top layer is layered on top of 15 mls of Ficoll (15 mls of Ficoll for every 30 mls of blood suspension) and centrifuged for 30 minutes at 400×g with no brake. The pellet at the bottom of the tube is then isolated and resuspended into PharmLyse RBC Lysis Buffer (BD Biosciences, San Jose, Calif.) after which the sample is again centrifuged for 10 minutes at 400×g with brake. The remaining cell pellet is resuspended as appropriate and consists of isolated neutrophils.
Optionally, compounds may be further assayed for their ability to inhibit chemotaxis in cells. Chemotaxis assays are performed using 5 μm pore polycarbonate, polyvinylpyrrolidone-coated filters in 96-well chemotaxis chambers (Neuroprobe; Gaithersburg, Md.) using chemotaxis buffer (Hank's balanced salt solution (HBSS) and 1% FBS). C5aR ligands (i.e., C5a, R&D Systems; Minneapolis, Minn.) are use to evaluate compound mediated inhibition of C5aR mediated migration. Other chemokines (i.e., SDF-1α; R&D Systems; Minneapolis, Minn.) are used as specificity controls. The lower chamber is loaded with 29 μl of chemokine (i.e., 0.03 nM C5a) and varying amounts of compound; the top chamber contains 100,000 U937 or neutrophil cells in 20 μl. The chambers are incubated 1.5 hours at 37° C., and the number of cells in the lower chamber quantified either by direct cell counts in five high powered fields per well or by the CyQuant assay (Molecular Probes), a fluorescent dye method that measures nucleic acid content and microscopic observation.
Regarding `CCc1cccc(CC)c1-n1nc2c(c1-c1ccc(F)c3[nH]ccc13)CN(Cc1cc(C(F)(F)F)cc(C(F)(F)F)c1)C2(C)C` [Compound 1.001], the IC50 fell in the range of 5 to 50 nM.

`CCc1cccc(CC)c1-n1nc2c(c1-c1cc(F)c(OC)c3[nH]ccc13)CN(Cc1ccc(C(F)(F)F)cc1C(F)(F)F)C2(C)C` [Compound 1.002] gave a half-maximal inhibitory concentration (IC50) of under 5 nM.

`CCc1cccc(CC)c1-n1nc2c(c1-c1ccc(F)c3[nH]ccc13)CN(C(=O)NC(C)C)C2(C)C` [Compound 1.003]: the concentration for half-maximal inhibition (IC50) was at least 500 nM.

In turn, `CCc1cccc(CC)c1-n1nc2c(c1-c1ccc(CO)c3[nH]ccc13)CN(Cc1ccc(C(F)(F)F)cc1C(F)(F)F)C2(C)C` [Compound 1.004] had an IC50 of under 5 nM.

For `CCc1cccc(CC)c1-n1nc2c(c1-c1ccc(C(=O)O)c3[nH]ccc13)CN(Cc1ccc(C(F)(F)F)cc1C(F)(F)F)C2(C)C` [Compound 1.005], the half-maximal inhibitory concentration (IC50) was at least 500 nM.

Regarding `CCc1cccc(CC)c1-n1nc2c(c1-c1ccc(F)c3[nH]ccc13)CN(C(=O)CN)C2(C)C` [Compound 1.006], the half-inhibitory concentration (IC50) is at least 500 nM.

In turn, `CCc1cccc(CC)c1-n1nc2c(c1-c1ccc(F)c3[nH]ccc13)CN(C(=O)CNC(=O)OC(C)(C)C)C2(C)C` [Compound 1.007] returned an IC50 of 50 to 500 nM.

For `CCc1cccc(CC)c1-n1nc2c(c1-c1ccc(F)c3[nH]ccc13)CN(Cc1ncco1)C2(C)C` [Compound 1.008], the 50% inhibitory concentration (IC50) was 50 to 500 nM.

Consider `CCc1cccc(CC)c1-n1nc2c(c1-c1ccc(F)c3[nH]ccc13)CN(CC(C)(C)O)C2(C)C` [Compound 1.009], for which the IC50 lay within 50 to 500 nM.

Turning to `CCc1cccc(CC)c1-n1nc2c(c1-c1cccc3[nH]cc(F)c13)CN(Cc1ccc(C(F)(F)F)cc1C(F)(F)F)C2(C)C` [Compound 1.010], the IC50 was in the range of 5 to 50 nM.

`CCc1cccc(CC)c1-n1nc2c(c1-c1ccc(F)c3[nH]cc(Cl)c13)CN(Cc1ccc(C(F)(F)F)cc1C(F)(F)F)C2(C)C` [Compound 1.011]: the concentration for half-maximal inhibition (IC50) lay in the range of 5 to 50 nM.

The molecule `CCc1cccc(CC)c1-n1nc2c(c1-c1ccc(F)c3[nH]ccc13)CN(Cc1ccc(F)cc1Cl)C2(C)C` [Compound 1.012] displayed an IC50 of 5 to 50 nM.

In the case of `CCc1cccc(CC)c1-n1nc2c(c1-c1ccc(F)c3[nH]ccc13)CN(Cc1ccc(F)cc1F)C2(C)C` [Compound 1.013], the IC50 lay within 5 to 50 nM.

On to `CCc1cccc(CC)c1-n1nc2c(c1-c1ccc(F)c3[nH]ccc13)CN(Cc1ccncc1)C2(C)C` [Compound 1.014], for which the IC50 fell in the range of 50 to 500 nM.

The molecule `CCc1cccc(CC)c1-n1nc2c(c1-c1ccc(F)c3[nH]cc(Cl)c13)CN(Cc1ccc(Cl)cc1F)C2(C)C` [Compound 1.015] showed a half-maximal inhibitory concentration (IC50) of 5 to 50 nM.

`CCc1cccc(CC)c1-n1nc2c(c1-c1ccc(F)c3[nH]ccc13)CN(Cc1cccnc1)C2(C)C` [Compound 1.016] showed a half-maximal inhibitory concentration (IC50) of 50 to 500 nM.

Molecule `CCc1cccc(CC)c1-n1nc2c(c1-c1ccc(F)c3[nH]cc(Cl)c13)CN(Cc1ccc(F)cc1F)C2(C)C` [Compound 1.017] displayed an IC50 of under 5 nM.

Turning to `CCc1cccc(CC)c1-n1nc2c(c1-c1ccc(F)c3[nH]ccc13)CN(Cc1cccc(F)c1)C2(C)C` [Compound 1.018], the IC50 fell in the range of 5 to 50 nM.

For the molecule `CCc1cccc(CC)c1-n1nc2c(c1-c1ccc(F)c3[nH]ccc13)CN(Cc1ccccn1)C2(C)C` [Compound 1.019], the IC50 was in the range of 5 to 50 nM.

The molecule `CCc1cccc(CC)c1-n1nc2c(c1-c1ccc(F)c3[nH]ccc13)CN(Cc1ccc(Cl)cc1Cl)C2(C)C` [Compound 1.020] came in with an IC50 of 5 to 50 nM.

For `CCc1cccc(CC)c1-n1nc2c(c1-c1ccc(F)c3[nH]ccc13)CN(Cc1ccccc1)C2(C)C` [Compound 1.021], the IC50 was under 5 nM.

In turn, `CCc1cccc(CC)c1-n1nc2c(c1-c1ccc(F)c3[nH]ccc13)CN(Cc1ccccc1F)C2(C)C` [Compound 1.022] came in with a half-inhibitory concentration (IC50) of 5 to 50 nM.

Molecule `CCc1cccc(CC)c1-n1nc2c(c1-c1ccc(F)c3[nH]ccc13)CN(Cc1ccc(F)cc1)C2(C)C` [Compound 1.023] showed an IC50 of under 5 nM.

As to `CCc1cccc(CC)c1-n1nc2c(c1-c1ccc(Cl)c3[nH]ccc13)CN(Cc1ccc(C(F)(F)F)cc1C(F)(F)F)C2(C)C` [Compound 1.024], the IC50 is under 5 nM.

As for `CCc1cccc(CC)c1-n1nc2c(c1-c1ccc(C)c3[nH]ccc13)CN(Cc1ccc(C(F)(F)F)cc1C(F)(F)F)C2(C)C` [Compound 1.025], the IC50 was under 5 nM.

`CCc1cccc(CC)c1-n1nc2c(c1-c1ccc(F)c3[nH]cc(Cl)c13)CN(Cc1ccccc1C(F)(F)F)C2(C)C` [Compound 1.026] came in with a 50% inhibitory concentration (IC50) of under 5 nM.

Turning to `CCc1cccc(CC)c1-n1nc2c(c1-c1cc(F)c3[nH]ccc3c1)CN(Cc1ccc(C(F)(F)F)cc1C(F)(F)F)C2(C)C` [Compound 1.027], the IC50 lay in the range of 5 to 50 nM.

Regarding `CCc1cccc(CC)c1-n1nc2c(c1-c1ccc(F)c3[nH]ccc13)CN(C(=O)c1ccccn1)C2(C)C` [Compound 1.028], the IC50 is 50 to 500 nM.

For `CCc1cccc(CC)c1-n1nc2c(c1-c1ccc(F)c3[nH]ccc13)CN(Cc1ccccc1C(F)(F)F)C2(C)C` [Compound 1.029], the IC50 lay within 5 to 50 nM.

For the molecule `CCc1cccc(CC)c1-n1nc2c(c1-c1ccc(F)c3[nH]ccc13)CN(C(=O)CC(C)C)C2(C)C` [Compound 1.030], the 50% inhibitory concentration (IC50) was 5 to 50 nM.

The molecule `CCc1cccc(CC)c1-n1nc2c(c1-c1cc(F)cc3[nH]ccc13)CN(Cc1ccc(C(F)(F)F)cc1C(F)(F)F)C2(C)C` [Compound 1.031] came in with a half-inhibitory concentration (IC50) of 5 to 50 nM.

`CCc1cccc(CC)c1-n1nc2c(c1-c1ccc(F)c3[nH]ccc13)CN(CC(C)(C)C)C2(C)C` [Compound 1.032] had an IC50 of under 5 nM.

For the molecule `CCc1cccc(CC)c1-n1nc2c(c1-c1ccc(F)c3[nH]ccc13)CN(C(=O)C(C)(C)C)C2(C)C` [Compound 1.033], the 50% inhibitory concentration (IC50) was in the range of 5 to 50 nM.

For `CCc1cccc(CC)c1-n1nc2c(c1-c1cccc3[nH]cc(Cl)c13)CN(Cc1ccc(C(F)(F)F)cc1C(F)(F)F)C2(C)C` [Compound 1.034], the IC50 lay in the range of 5 to 50 nM.

For the molecule `CCc1cccc(CC)c1-n1nc2c(c1-c1cccc3[nH]cc(C)c13)CN(Cc1ccc(C(F)(F)F)cc1C(F)(F)F)C2(C)C` [Compound 1.035], the 50% inhibitory concentration (IC50) is 5 to 50 nM.

Consider `CCc1cccc(CC)c1-n1nc2c(c1-c1cccc3[nH]cc(C#N)c13)CN(Cc1ccc(C(F)(F)F)cc1C(F)(F)F)C2(C)C` [Compound 1.036], for which the half-maximal inhibitory concentration (IC50) lay within 5 to 50 nM.

Turning to `CCc1cccc(CC)c1-n1nc2c(c1-c1c(F)cc(F)c3[nH]ccc13)CN(Cc1ccc(C(F)(F)F)cc1C(F)(F)F)C2(C)C` [Compound 1.037], the 50% inhibitory concentration (IC50) was under 5 nM.

On to `CCc1cccc(CC)c1-n1nc2c(c1-c1cccc3[nH]ccc13)CN(Cc1cc(C(F)(F)F)ccc1C(F)(F)F)C2(C)C` [Compound 1.038], for which the IC50 is 5 to 50 nM.

`CCc1cccc(CC)c1-n1nc2c(c1-c1ccc(F)c3[nH]ccc13)CN(Cc1ccc(C(F)(F)F)cc1C(F)(F)F)C2(C)C` [Compound 1.039] had an IC50 of 5 to 50 nM.

The molecule `CCc1cccc(CC)c1-n1nc2c(c1-c1cccc3[nH]ccc13)CN(C(=O)Cn1nc(C(F)(F)F)cc1C)C2(C)C` [Compound 1.040] showed an IC50 of at least 500 nM.

Turning to `CCc1cccc(CC)c1-n1nc2c(c1-c1cccc3[nH]ccc13)CN(C(=O)COc1ccccc1)C2(C)C` [Compound 1.041], the IC50 lay in the range of 50 to 500 nM.

`CCc1cccc(CC)c1-n1nc2c(c1-c1cccc3[nH]ccc13)CN(Cc1cc(Cl)ccc1Cl)C2(C)C` [Compound 1.042] registered an IC50 of 5 to 50 nM.
